Values quoted from earlier work in patent publication US20170072072A1, “PH SENSITIVE FLUORESCENT COMPOUNDS AND METHODS FOR TUMOR DETECTION” (THE METHODIST HOSPITAL SYSTEM, priority 2014, published 2017).

Settings: in DMSO

CC1(C)C(/C=C/C=C/C=C/C=C2\N(CCCCS(=O)(=O)O)c3ccc4ccccc4c3C2(C)C)=[N+](CCCCS(=O)(=O)[O-])c2ccc3ccccc3c21 [indocyanine green]
quantum yield Φ of reference: 0.106
